Test results reported in US6921835B2, “Cyclic amino acids and derivatives thereof useful as pharmaceutical agents” (Warner Lambert Company, priority 1997, dated 2005).
Counter-ions that a name gives are not always drawn. Like-named read-outs stand apart in the source and are kept apart here.

How the values were obtained:
[1] = test system: Carrageenan Induced Thermal Hyperalgesia in the Rat; experiment: Carrageenan-induced thermal hyperalgesia in the rat (plantar test, paw withdrawal latency); type: in vivo; conditions: MPE = maximum possible effect, baseline before carrageenan
Protocol: Male Sprague-Dawley rats (180-250 g) were obtained from Bantin and Kingman, (Hull, U.K.). Animals were housed in groups of 6 to 10 under a 12 hour light/dark cycle (lights on at 7 hours, 0 minutes) with food and water ad libitum.
Carrageenan-induced Thermal Hyperalgesia in the Rat
Thermal hyperalgesia was assessed using the rat plantar test (Ugo Basile, Italy) following a modified method of Hargreaves, et al., 1988. Rats were habituated to the apparatus which consisted of three individual perspex boxes on an elevated glass table. A mobile radiant heat source located under the table was focused onto the desired paw and paw withdrawal latencies (PWL) recorded. PWL were taken 3 times for both hind paws of each animal, the mean of which represented baselines for right and left hind paws. At least 5 minutes were allowed between each PWL for an animal. The apparatus was calibrated to give a PWL of approximately 10 s. There was an automatic cutoff point of 20 s to prevent tissue damage. After baseline PWLs were determined, animals received an intraplantar injection of carrageenan (100 μL of 20 mg/mL) into the right hind paw. PWLs were reassessed following the same protocol as above 2-hour post-carrageenan (this time point represented the start of peak hyperalgesia) to ascertain that hyperalgesia had developed. Test compounds were administered orally (in a volume of 1 mL/kg) at 2.5 hours after carrageenan. PWLs were reassessed at various times after drug administration.

[2] = target: T1, α2δ subunit (Sus scrofa, UniProt A0A287BIN3); experiment: radioligand binding assay using [3H]gabapentin and the α2δ subunit; set-up: species or system porcine
T1 construct: the α2δ subunit derived from porcine brain tissue was used; from tissue; host or cells: porcine brain tissue
T1 sequence (A0A287BIN3 25-1109): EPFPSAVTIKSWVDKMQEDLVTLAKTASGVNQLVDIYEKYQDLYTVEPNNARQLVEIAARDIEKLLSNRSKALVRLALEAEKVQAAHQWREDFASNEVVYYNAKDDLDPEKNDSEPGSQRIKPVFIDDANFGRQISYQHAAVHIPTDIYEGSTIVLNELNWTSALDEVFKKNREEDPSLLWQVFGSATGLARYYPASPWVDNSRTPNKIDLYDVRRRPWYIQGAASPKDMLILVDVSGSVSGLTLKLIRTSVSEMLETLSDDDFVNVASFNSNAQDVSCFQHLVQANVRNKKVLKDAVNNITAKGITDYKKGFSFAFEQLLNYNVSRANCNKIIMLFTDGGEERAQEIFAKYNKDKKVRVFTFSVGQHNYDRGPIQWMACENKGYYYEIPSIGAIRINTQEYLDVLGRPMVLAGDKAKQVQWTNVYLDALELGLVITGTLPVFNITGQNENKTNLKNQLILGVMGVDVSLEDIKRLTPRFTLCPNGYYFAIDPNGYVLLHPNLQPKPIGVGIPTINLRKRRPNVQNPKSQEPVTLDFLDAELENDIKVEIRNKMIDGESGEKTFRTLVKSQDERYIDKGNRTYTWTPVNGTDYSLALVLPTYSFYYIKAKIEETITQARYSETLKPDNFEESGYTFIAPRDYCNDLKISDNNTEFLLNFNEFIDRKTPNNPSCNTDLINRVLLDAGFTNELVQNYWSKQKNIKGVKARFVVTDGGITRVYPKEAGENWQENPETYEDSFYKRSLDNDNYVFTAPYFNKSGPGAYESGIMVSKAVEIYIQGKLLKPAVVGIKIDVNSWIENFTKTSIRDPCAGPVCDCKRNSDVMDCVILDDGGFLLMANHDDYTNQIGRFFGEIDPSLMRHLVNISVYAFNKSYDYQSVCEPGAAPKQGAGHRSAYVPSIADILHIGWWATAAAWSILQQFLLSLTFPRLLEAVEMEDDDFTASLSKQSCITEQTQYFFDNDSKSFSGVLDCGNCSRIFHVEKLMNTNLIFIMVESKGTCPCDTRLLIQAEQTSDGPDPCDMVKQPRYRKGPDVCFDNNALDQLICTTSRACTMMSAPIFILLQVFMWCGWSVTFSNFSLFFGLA

[3] = test system: sound-induced tonic seizures in DBA/2 mice; experiment: DBA2 test: prevention of audiogenic seizures in DBA/2 mice; type: in vivo; conditions: DBA/2 mouse
Protocol: A Model of Anticonvulsant Efficacy and Protocol for DBA2 Test: Prevention of Audiogenic Seizures in DBA/2 Mice
All procedures were carried out in compliance with the NI/H Guide for the Care and Use of Laboratory Animals under a protocol approved by the Parke-Davis Animal Use Committee. Male DBA/2 mice, 3 to 4 weeks old, were obtained from Jackson Laboratories, Bar Harbour, Me. Immediately before anticonvulsant testing, mice were placed upon a wire mesh, 4 inches square suspended from a steel rod. The square was slowly inverted through 180 degrees and mice observed for 30 seconds. Any mouse falling from the wire mesh was scored as ataxic.
Mice were placed into an enclosed acrylic plastic chamber (21 cm height, approximately 30 cm diameter) with a high-frequency speaker (4 cm diameter) in the center of the top lid. An audio signal generator (Protek model B-810) was used to produce a continuous sinusoidal tone that was swept linearly in frequency between 8 kHz and 16 kHz once each 10 msec. The average sound pressure level (SPL) during stimulation was approximately 100 dB at the floor of the chamber. Mice were placed within the chamber and allowed to acclimatize for 1 minute. DBA/2 mice in the vehicle-treated group responded to the sound stimulus (applied until tonic extension occurred, or for a maximum of 60 seconds) with a characteristic seizure sequence consisting of wild running followed by clonic seizures, and later by tonic extension, and finally by respiratory arrest and death in 80% or more of the mice. In vehicle-treated mice, the entire sequence of seizures to respiratory arrest lasts approximately 15 to 20 seconds.
The incidence of all the seizure phases in the drug-treated and vehicle-treated mice was recorded, and the occurrence of tonic seizures were used for calculating anticonvulsant ED50 values by probit analysis. Mice were used only once for testing at each dose point. […] All drugs in the present study were dissolved in distilled water and given by oral gavage in a volume of 10 mL/kg of body weight. compounds that are insoluble will be suspended in 1% carboxymethocellulose. Doses are expressed as weight of the active drug moiety.

Compound | % MPE 1 hr postdose @ 30 mg/kg PO [1] [% MPE] | % MPE 2 hr postdose @ 30 mg/kg PO [1] [% MPE] | IC50 [2] [µM] | % Protected 1 hr postdose 30 mg/kg PO [3] [%] | % Protected (2 hour postdose) 30 mg/kg PO ([3]; 2 hour postdose) | IC50 ([2]; read-out: IC50 (μM) at α2δ binding site) [µM]
NCC1(CC(=O)O)CC(Cc2ccccc2)C1 (mixture of isomers) [(cis/trans)-(1-Aminomethyl-3-benzyl-cyclobutyl)-acetic acid hydrochloride] | 0 | 0 | > 10 |  |  | 
C[C@@H]1CCC(CN)(CC(=O)O)C1 (mixture of isomers) [(cis/trans)-(3R)-(1-Aminomethyl-3-methyl-cyclopentyl)-acetic acid hydrochloride] | 67 | 53 | 0.088 | 100 |  | 
C[C@@H]1CC(CN)(CC(=O)O)C[C@H]1C.Cl (racemic) [(±)-(trans)-(1-Aminomethyl-3,4-dimethyl-cyclopentyl)-acetic acid hydrochloride] | 23 | 72 | 0.034 | 100 |  | 
Cl.NCC1(CC(=O)O)CCC1 [(1-Aminomethyl-cyclobutyl)-acetic acid hydrochloride] | 4 | 4 | 0.598 |  | 20 (2 hour postdose) % | 
C[C@@H]1C[C@](CN)(CC(=O)O)C[C@@H]1C [(1α,3β,4β)-(1-Aminomethyl-3,4-dimethyl-cyclopentyl)-acetic acid hydrochloride] | −7 | −2 |  | 100 |  | 0.154
C[C@@H]1CC(CN)(CC(=O)O)C[C@H]1C [(3R,4R)-(1-Aminomethyl-3,4-dimethyl-cyclopentyl)-acetic acid hydrochloride] |  |  | 1 |  |  | 
C[C@H]1CC(CN)(CC(=O)O)C[C@@H]1C.Cl [(3S,4S)-(1-Aminomethyl-3,4-dimethyl-cyclopentyl)-acetic acid hydrochloride] | 109 | 118 | 0.022 | 100 |  | 
